In ChEMBL document CHEMBL1201862, “PubChem BioAssay data set” (2004):
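Cells were grown in 96-well plates and exposed to each compound for 48 hours at five concentrations; endpoints were interpolated linearly between bracketing concentrations, or set to the highest concentration if not reached. Here, GI50 denotes the concentration required for 50% inhibition of growth.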 Active and inactive are the calls of the source. Cut-off read from the data, not from the text of the source: active = GI50 up to about 1.1 µM and inactive = higher.

Legend:
Assay in all cases: growth of human tumour cells (NCI), 48 h
PC-3 = system: PC-3
OVCAR-3 = system: OVCAR-3
KM12 = system: KM12
A498 = system: A498
RXF 393 = system: RXF 393
DU-145 = system: DU-145
CAKI-1 = system: CAKI-1
SF-268 = system: SF-268
MCF7 = system: MCF7
IGROV-1 = system: IGROV-1
MOLT-4 = system: MOLT-4
OVCAR-8 = system: OVCAR-8
OVCAR-4 = system: OVCAR-4
SK-OV-3 = system: SK-OV-3
SW-620 = system: SW-620
SN12C = system: SN12C
COLO 205 = system: COLO 205
RPMI-8226 = system: RPMI-8226
EKVX = system: EKVX
SF-539 = system: SF-539

| Structure (SMILES) | GI50 (PC-3) | GI50 (OVCAR-3) | GI50 (KM12) | GI50 (A498) | GI50 (RXF 393) | GI50 (DU-145) | GI50 (CAKI-1) | GI50 (SF-268) | GI50 (MCF7) | GI50 (IGROV-1) | GI50 (MOLT-4) | GI50 (OVCAR-8) | GI50 (OVCAR-4) | GI50 (SK-OV-3) | GI50 (SW-620) | GI50 (SN12C) | GI50 (COLO 205) | GI50 (RPMI-8226) | GI50 (EKVX) | GI50 (SF-539) |
| --- | --- | --- | --- | --- | --- | --- | --- | --- | --- | --- | --- | --- | --- | --- | --- | --- | --- | --- | --- | --- |
| Cc1ccc(S(=O)ON2CCC(C(=O)O)(c3ccccc3)CC2)cc1 (stereo not given) | > 100 µM (inactive) | > 100 µM (inactive) | > 100 µM (inactive) | > 100 µM (inactive) | > 100 µM (inactive) | > 100 µM (inactive) | > 100 µM (inactive) | > 100 µM (inactive) | > 100 µM (inactive) | > 100 µM (inactive) | > 100 µM (inactive) | > 100 µM (inactive) | > 100 µM (inactive) | > 100 µM (inactive) | > 100 µM (inactive) | > 100 µM (inactive) | > 100 µM (inactive) | > 100 µM (inactive) | 33.3 µM (inactive) |  |
| CC(=O)c1ccc2c3c1[C@@H]1O[C@@H]1c1cccc(c1-3)[C@@H]1O[C@H]21 | 17.3 µM (inactive) | 13.5 µM (inactive) | 7.52 µM (inactive) | 21.5 µM (inactive) | 11.5 µM (inactive) | 8.39 µM (inactive) | 4.72 µM (inactive) | 6.62 µM (inactive) | 4 µM (inactive) | 0.782 µM (active) | 14.1 µM (inactive) | 3.94 µM (inactive) | 13.6 µM (inactive) | 28.6 µM (inactive) | 2.54 µM (inactive) | 8.26 µM (inactive) | 9.79 µM (inactive) | 5.05 µM (inactive) | 16.4 µM (inactive) |  |
| C=CC1(c2ccc(Br)cc2)OCCCO1 | > 100 µM (inactive) | > 100 µM (inactive) | > 100 µM (inactive) |  | > 100 µM (inactive) | > 100 µM (inactive) |  | > 100 µM (inactive) | > 100 µM (inactive) | > 100 µM (inactive) | > 100 µM (inactive) | > 100 µM (inactive) | > 100 µM (inactive) | > 100 µM (inactive) | > 100 µM (inactive) | > 100 µM (inactive) | > 100 µM (inactive) | > 100 µM (inactive) | > 100 µM (inactive) | > 100 µM (inactive) |
| COC(=O)C1CC(C=[N+](C)C)=C(SC)N1 (stereo not given) | > 100 µM (inactive) | > 100 µM (inactive) | > 100 µM (inactive) | > 100 µM (inactive) | > 100 µM (inactive) | > 100 µM (inactive) | > 100 µM (inactive) | > 100 µM (inactive) | > 100 µM (inactive) | > 100 µM (inactive) | > 100 µM (inactive) | > 100 µM (inactive) | > 100 µM (inactive) | > 100 µM (inactive) | > 100 µM (inactive) |  | > 100 µM (inactive) | > 100 µM (inactive) | > 100 µM (inactive) |  |
| Oc1ccc(/C=C/c2cccc(/C=C/c3ccc(O)c(O)c3)n2)cc1O | 17.5 µM (inactive) | 4.05 µM (inactive) | 8.91 µM (inactive) | 12.9 µM (inactive) |  | 3.77 µM (inactive) | 13.8 µM (inactive) | 10.7 µM (inactive) | 10.2 µM (inactive) | 6.15 µM (inactive) | 3.27 µM (inactive) | 6.81 µM (inactive) | 6.04 µM (inactive) | 16.1 µM (inactive) | 7.05 µM (inactive) | 8.87 µM (inactive) | 14.2 µM (inactive) | 3.76 µM (inactive) | 11.7 µM (inactive) | 3.02 µM (inactive) |
| S=c1sc2c(s1)SCCCCSCCCCSc1sc(=S)sc1SCCCCSCCCCS2 | > 100 µM (inactive) | > 100 µM (inactive) | > 100 µM (inactive) | > 100 µM (inactive) |  | > 100 µM (inactive) | > 100 µM (inactive) | 93.1 µM (inactive) | > 100 µM (inactive) | > 100 µM (inactive) | > 100 µM (inactive) | > 100 µM (inactive) |  | > 100 µM (inactive) | > 100 µM (inactive) | > 100 µM (inactive) | > 100 µM (inactive) | > 100 µM (inactive) | > 100 µM (inactive) | > 100 µM (inactive) |
| ClC1(Cl)C2CCOC21n1cnc2ccccc21 (stereo not given) | > 100 µM (inactive) | > 100 µM (inactive) | > 100 µM (inactive) |  | > 100 µM (inactive) | > 100 µM (inactive) | > 100 µM (inactive) | > 100 µM (inactive) | > 100 µM (inactive) | > 100 µM (inactive) | > 100 µM (inactive) | > 100 µM (inactive) | 67.3 µM (inactive) | > 100 µM (inactive) | 7.21 µM (inactive) | > 100 µM (inactive) | > 100 µM (inactive) | > 100 µM (inactive) | > 100 µM (inactive) | > 100 µM (inactive) |
